Reference: ChEMBL document CHEMBL1201862, “PubChem BioAssay data set” (2004)
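Following 48 hours of exposure in 96-well plates, responses at five concentrations were used to interpolate endpoints linearly. GI50 = concentration required for 50% inhibition of growth.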 The source made the active and inactive calls. Rule as the data show it: active = GI50 up to about 1.1 µM and inactive = higher.

Tests used:
Assay in all cases: inhibition of tumour cell growth, NCI panel, 48 h
SW-620 = system: SW-620
RXF 393 = system: RXF 393
CAKI-1 = system: CAKI-1
LOX IMVI = system: LOX IMVI
SK-MEL-2 = system: SK-MEL-2
HCC 2998 = system: HCC 2998
EKVX = system: EKVX
U-251 = system: U-251
HOP-92 = system: HOP-92
M19-MEL = system: M19-MEL
M14 = system: M14
UACC-257 = system: UACC-257
NCI-H460 = system: NCI-H460
Malme-3M = system: Malme-3M
SK-OV-3 = system: SK-OV-3
K562 = system: K562
SF-295 = system: SF-295
SF-268 = system: SF-268
HOP-18 = system: HOP-18
TK-10 = system: TK-10
NCI-H226 = system: NCI-H226
KM-20L2 = system: KM-20L2
SK-MEL-28 = system: SK-MEL-28
UO-31 = system: UO-31
HOP-62 = system: HOP-62
DMS-114 = system: DMS-114
COLO 205 = system: COLO 205
HL-60 = system: HL-60
A549 = system: A549
HCT-116 = system: HCT-116
SK-MEL-5 = system: SK-MEL-5
OVCAR-3 = system: OVCAR-3
HT-29 = system: HT-29
786-0 = system: 786-0
NCI-H23 = system: NCI-H23
MOLT-4 = system: MOLT-4
DLD-1 = system: DLD-1
OVCAR-5 = system: OVCAR-5
NCI-H522 = system: NCI-H522
ACHN = system: ACHN
UACC-62 = system: UACC-62
HCT-15 = system: HCT-15
OVCAR-8 = system: OVCAR-8
IGROV-1 = system: IGROV-1
SF-539 = system: SF-539
CCRF-CEM = system: CCRF-CEM
SN12C = system: SN12C
RPMI-8226 = system: RPMI-8226
SNB-75 = system: SNB-75
OVCAR-4 = system: OVCAR-4
LXFL 529 = system: LXFL 529
SR = system: SR
KM12 = system: KM12
SNB-19 = system: SNB-19
T47D = system: T47D
DU-145 = system: DU-145
MDA-MB-231 = system: MDA-MB-231
NCI/ADR-RES = system: NCI/ADR-RES
MCF7 = system: MCF7
MDA-MB-435 = system: MDA-MB-435
PC-3 = system: PC-3
A498 = system: A498
BT-549 = system: BT-549
Hs-578T = system: Hs-578T
MDA-N = system: MDA-N

Measured: GI50

COc1cc2ccc3c4cc(OC)c(OC(C)C)cc4c[n+](C)c3c2cc1OC
inactive: SW-620 71.6 µM | RXF 393 27.7 µM | CAKI-1 > 100 µM | LOX IMVI 54.3 µM | SK-MEL-2 30.8 µM | HCC 2998 44.5 µM | EKVX > 100 µM | U-251 31.3 µM | HOP-92 36.7 µM | M19-MEL 29 µM | M14 64.6 µM | UACC-257 28.2 µM | NCI-H460 > 100 µM | Malme-3M 48.9 µM | SK-OV-3 > 100 µM | K562 22.7 µM | SF-295 > 100 µM | SF-268 32.7 µM | HOP-18 23.4 µM | TK-10 > 100 µM | NCI-H226 71.3 µM | KM-20L2 > 100 µM | SK-MEL-28 33.6 µM | UO-31 > 100 µM | HOP-62 > 100 µM | DMS-114 9.64 µM | COLO 205 14.5 µM | HL-60 35.1 µM | A549 > 100 µM | HCT-116 > 100 µM | SK-MEL-5 42 µM | OVCAR-3 19.7 µM | HT-29 > 100 µM | 786-0 99.3 µM | NCI-H23 95.7 µM | MOLT-4 > 100 µM | DLD-1 > 100 µM | OVCAR-5 > 100 µM | NCI-H522 17.4 µM | ACHN > 100 µM | UACC-62 55.2 µM | OVCAR-8 39.2 µM | IGROV-1 74.5 µM | SF-539 40.4 µM | CCRF-CEM 49.1 µM | SN12C 31.5 µM | RPMI-8226 > 100 µM | SNB-75 34 µM | OVCAR-4 64 µM | LXFL 529 14.2 µM | SR 47.8 µM | KM12 > 100 µM | SNB-19 > 100 µM
> 100 µM: HCT-15

CC(C)SC1CC2C(CC1(C)O)C2(C)C (centres undefined)
inactive: KM-20L2 4.3 µM

COc1ccc2[nH]c3nnc(N)c-3nc2c1
inactive: SW-620 9.4 µM | RXF 393 2.49 µM | CAKI-1 5.66 µM | T47D 7.5 µM | LOX IMVI 4.11 µM | SK-MEL-2 5.28 µM | HCC 2998 14.1 µM | EKVX 4.26 µM | U-251 10.6 µM | HOP-92 10.4 µM | M14 12.3 µM | UACC-257 17.1 µM | NCI-H460 7.46 µM | Malme-3M 21.8 µM | DU-145 7.55 µM | MDA-MB-231 18.9 µM | SK-OV-3 20.4 µM | K562 62.4 µM | SF-295 7.66 µM | SF-268 6.21 µM | TK-10 11.3 µM | NCI/ADR-RES 7.01 µM | NCI-H226 3.85 µM | MCF7 3.99 µM | MDA-MB-435 10.2 µM | PC-3 8.43 µM | A498 9.79 µM | SK-MEL-28 11.2 µM | UO-31 9.73 µM | HOP-62 6.14 µM | COLO 205 3.62 µM | HL-60 2.13 µM | BT-549 13.6 µM | Hs-578T 3.81 µM | A549 4.14 µM | HCT-116 4.04 µM | SK-MEL-5 8.09 µM | OVCAR-3 3.61 µM | HT-29 5.58 µM | 786-0 8.3 µM | NCI-H23 4.17 µM | MOLT-4 5.73 µM | OVCAR-5 7.8 µM | MDA-N 12 µM | NCI-H522 5.83 µM | ACHN 3.33 µM | UACC-62 7.01 µM | OVCAR-8 5.62 µM | IGROV-1 2.59 µM | SF-539 3.74 µM | CCRF-CEM 9.31 µM | SN12C 18.4 µM | RPMI-8226 3.87 µM | SNB-75 6.79 µM | OVCAR-4 20 µM | SR 4.1 µM | KM12 5.68 µM | SNB-19 16.5 µM
7.94 µM: HCT-15
